Experimental data reported in ChEMBL document CHEMBL5291721, “A preclinical secondary pharmacology resource illuminates target-adverse drug reaction associations of marketed drugs” (Nat Commun, 2023).

Tests used:
[1] = target: Prothrombin (Homo sapiens, UniProt P00734); type: functional
[2] = target: Vasopressin V2 receptor (Homo sapiens, UniProt P30518)
[3] = target: T1, Gastrin/cholecystokinin type B receptor (Homo sapiens, UniProt P32239)
T1 sequence (P32239 whole entry): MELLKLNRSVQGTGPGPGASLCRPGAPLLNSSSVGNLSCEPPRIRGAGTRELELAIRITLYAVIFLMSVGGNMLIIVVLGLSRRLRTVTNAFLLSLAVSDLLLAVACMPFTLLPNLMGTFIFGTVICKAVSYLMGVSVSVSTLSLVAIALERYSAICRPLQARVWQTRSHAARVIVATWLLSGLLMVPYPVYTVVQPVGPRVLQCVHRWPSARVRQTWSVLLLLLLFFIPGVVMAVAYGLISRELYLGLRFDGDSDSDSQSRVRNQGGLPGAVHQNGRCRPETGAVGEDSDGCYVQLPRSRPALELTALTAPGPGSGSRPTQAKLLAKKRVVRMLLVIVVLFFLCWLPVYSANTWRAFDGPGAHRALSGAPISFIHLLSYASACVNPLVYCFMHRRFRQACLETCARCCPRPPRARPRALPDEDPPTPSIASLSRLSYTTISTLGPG

[4] = target: Cannabinoid receptor 1 (Homo sapiens, UniProt P21554); type: functional, cell-based
Cannabinoid receptor 1, sequence (P21554 whole entry): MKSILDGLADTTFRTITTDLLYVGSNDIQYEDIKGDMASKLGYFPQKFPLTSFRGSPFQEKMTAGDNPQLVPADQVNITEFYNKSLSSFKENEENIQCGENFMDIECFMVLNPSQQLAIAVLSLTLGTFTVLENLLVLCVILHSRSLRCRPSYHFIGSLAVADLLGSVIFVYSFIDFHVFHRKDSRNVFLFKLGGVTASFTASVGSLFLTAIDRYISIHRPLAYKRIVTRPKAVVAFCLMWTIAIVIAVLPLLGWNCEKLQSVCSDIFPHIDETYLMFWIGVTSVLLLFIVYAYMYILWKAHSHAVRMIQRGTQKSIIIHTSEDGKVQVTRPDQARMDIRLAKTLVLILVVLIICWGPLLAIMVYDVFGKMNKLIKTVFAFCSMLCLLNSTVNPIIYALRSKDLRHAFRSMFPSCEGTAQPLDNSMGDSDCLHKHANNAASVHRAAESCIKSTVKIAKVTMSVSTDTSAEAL

[5] = target: T2, Endothelin-1 receptor (Homo sapiens, UniProt P25101)
T2 sequence (P25101 whole entry): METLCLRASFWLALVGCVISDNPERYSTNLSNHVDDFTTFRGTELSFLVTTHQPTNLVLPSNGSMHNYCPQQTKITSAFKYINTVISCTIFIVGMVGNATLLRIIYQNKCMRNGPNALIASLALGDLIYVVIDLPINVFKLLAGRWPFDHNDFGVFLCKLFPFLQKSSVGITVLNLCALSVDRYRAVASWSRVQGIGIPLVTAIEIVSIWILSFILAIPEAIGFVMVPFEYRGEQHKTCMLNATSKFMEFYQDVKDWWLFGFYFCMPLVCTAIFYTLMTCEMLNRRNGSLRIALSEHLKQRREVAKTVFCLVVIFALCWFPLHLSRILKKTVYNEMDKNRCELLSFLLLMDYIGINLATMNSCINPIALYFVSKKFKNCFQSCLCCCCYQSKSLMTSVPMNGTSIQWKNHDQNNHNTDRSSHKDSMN

[6] = target: Acetylcholinesterase (Homo sapiens, UniProt P22303); type: functional
Acetylcholinesterase, sequence (P22303 whole entry): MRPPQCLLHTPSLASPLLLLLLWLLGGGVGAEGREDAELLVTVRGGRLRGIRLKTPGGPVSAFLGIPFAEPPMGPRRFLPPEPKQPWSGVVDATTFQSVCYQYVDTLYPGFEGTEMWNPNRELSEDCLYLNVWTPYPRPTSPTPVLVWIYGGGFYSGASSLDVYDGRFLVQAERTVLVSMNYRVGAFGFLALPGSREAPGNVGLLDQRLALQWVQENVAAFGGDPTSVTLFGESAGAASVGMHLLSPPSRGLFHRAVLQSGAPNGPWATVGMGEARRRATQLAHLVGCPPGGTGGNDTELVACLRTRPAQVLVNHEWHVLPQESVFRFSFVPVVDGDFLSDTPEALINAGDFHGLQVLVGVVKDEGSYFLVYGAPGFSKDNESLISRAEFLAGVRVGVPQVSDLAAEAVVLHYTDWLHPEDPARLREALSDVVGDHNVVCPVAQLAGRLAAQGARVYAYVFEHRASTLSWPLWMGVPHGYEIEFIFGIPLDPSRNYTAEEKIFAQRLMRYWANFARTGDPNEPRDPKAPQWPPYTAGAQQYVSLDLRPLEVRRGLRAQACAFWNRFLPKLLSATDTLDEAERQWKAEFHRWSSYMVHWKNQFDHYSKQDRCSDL

[7] = target: T3, Muscarinic acetylcholine receptor M2 (Homo sapiens, UniProt P08172); type: functional, cell-based
T3 sequence (P08172 whole entry): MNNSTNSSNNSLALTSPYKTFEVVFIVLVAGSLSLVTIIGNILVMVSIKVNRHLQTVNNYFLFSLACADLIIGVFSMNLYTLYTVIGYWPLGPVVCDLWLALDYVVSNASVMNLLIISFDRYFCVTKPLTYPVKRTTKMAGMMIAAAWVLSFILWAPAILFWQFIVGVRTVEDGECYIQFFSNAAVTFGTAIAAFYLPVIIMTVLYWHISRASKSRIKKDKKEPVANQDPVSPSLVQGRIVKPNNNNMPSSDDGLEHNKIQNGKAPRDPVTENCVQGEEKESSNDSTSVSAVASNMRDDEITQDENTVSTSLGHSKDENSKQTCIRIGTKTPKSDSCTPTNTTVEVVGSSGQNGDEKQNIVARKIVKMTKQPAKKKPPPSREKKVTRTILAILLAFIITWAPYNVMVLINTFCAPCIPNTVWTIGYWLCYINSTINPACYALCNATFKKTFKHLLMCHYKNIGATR

[8] = target: T4, Alpha-1A adrenergic receptor (Homo sapiens, UniProt P35348); type: functional, cell-based
T4 sequence (P35348 whole entry): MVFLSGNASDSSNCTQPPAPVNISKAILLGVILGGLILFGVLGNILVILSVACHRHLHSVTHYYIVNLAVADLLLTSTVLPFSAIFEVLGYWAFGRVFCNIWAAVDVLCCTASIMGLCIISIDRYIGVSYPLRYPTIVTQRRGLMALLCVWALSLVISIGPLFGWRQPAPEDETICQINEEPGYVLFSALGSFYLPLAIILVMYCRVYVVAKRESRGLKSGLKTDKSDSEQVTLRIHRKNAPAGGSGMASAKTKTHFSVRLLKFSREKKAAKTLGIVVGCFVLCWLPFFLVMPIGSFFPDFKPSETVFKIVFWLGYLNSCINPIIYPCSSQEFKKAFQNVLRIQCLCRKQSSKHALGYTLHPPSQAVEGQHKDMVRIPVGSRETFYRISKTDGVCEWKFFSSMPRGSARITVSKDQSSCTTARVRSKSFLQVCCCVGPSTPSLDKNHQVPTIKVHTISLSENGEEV

[9] = target: T5, B2 bradykinin receptor (Homo sapiens, UniProt P30411)
T5 sequence (P30411 whole entry): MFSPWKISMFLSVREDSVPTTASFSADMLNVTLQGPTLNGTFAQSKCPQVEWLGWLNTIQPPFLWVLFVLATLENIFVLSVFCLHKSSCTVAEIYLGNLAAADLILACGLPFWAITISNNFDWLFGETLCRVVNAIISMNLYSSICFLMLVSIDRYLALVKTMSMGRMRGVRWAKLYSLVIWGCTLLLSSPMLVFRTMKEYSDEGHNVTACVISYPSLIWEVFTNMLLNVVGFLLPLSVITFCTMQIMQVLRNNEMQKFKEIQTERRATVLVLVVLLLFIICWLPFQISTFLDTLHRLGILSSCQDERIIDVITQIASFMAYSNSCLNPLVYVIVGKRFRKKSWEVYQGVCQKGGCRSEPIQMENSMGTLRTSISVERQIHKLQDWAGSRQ

[10] = target: Vasopressin V1a receptor (Homo sapiens, UniProt P37288)
Vasopressin V1a receptor, sequence (P37288 whole entry): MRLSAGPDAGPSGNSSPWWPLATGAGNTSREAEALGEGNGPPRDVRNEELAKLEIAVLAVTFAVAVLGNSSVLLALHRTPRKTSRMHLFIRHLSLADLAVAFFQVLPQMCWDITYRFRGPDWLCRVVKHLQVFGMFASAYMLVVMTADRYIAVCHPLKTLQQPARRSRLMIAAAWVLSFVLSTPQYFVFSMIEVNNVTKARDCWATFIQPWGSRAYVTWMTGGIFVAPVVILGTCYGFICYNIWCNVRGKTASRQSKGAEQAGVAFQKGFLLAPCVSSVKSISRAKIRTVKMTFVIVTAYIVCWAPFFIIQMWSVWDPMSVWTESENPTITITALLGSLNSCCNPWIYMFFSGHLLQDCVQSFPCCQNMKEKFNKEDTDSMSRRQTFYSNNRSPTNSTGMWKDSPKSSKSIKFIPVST

[11] = target: Gamma-aminobutyric acid receptor subunit alpha-1 (Rattus norvegicus, UniProt P62813)
Gamma-aminobutyric acid receptor subunit alpha-1, sequence (P62813 whole entry): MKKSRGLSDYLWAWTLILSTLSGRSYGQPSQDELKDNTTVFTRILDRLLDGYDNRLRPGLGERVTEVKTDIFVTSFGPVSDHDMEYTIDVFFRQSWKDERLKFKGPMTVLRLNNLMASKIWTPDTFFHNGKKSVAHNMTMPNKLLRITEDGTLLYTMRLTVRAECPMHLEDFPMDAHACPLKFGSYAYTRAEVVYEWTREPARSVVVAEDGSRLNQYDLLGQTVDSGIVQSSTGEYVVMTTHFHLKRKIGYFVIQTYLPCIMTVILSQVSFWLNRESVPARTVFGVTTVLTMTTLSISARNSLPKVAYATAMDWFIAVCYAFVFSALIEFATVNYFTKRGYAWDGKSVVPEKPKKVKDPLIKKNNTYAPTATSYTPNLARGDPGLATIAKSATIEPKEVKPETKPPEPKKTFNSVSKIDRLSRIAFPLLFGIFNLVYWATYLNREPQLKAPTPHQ

[12] = target: Sodium-dependent dopamine transporter (Homo sapiens, UniProt Q01959)
Sodium-dependent dopamine transporter, sequence (Q01959 whole entry): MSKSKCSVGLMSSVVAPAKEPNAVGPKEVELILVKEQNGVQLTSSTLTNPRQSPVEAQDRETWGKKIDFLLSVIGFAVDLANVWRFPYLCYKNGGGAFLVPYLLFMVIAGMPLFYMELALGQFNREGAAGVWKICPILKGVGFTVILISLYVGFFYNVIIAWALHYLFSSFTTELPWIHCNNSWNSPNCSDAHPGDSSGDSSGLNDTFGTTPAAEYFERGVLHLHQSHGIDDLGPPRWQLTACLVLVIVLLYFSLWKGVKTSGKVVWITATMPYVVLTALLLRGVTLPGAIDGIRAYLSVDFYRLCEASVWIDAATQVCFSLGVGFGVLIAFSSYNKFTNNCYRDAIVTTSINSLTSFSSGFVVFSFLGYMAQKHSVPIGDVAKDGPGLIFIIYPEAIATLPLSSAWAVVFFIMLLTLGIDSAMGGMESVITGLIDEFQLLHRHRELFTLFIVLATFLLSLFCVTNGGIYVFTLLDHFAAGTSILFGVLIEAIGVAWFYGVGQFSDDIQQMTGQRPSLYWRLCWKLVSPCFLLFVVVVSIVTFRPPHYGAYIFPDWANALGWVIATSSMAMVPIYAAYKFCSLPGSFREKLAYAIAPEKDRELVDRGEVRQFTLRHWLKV

[13] = target: T4, Alpha-1A adrenergic receptor; type: functional, cell-based; remark: listed apart in the source
[14] = target: T3, Muscarinic acetylcholine receptor M2; type: functional, cell-based; remark: listed apart in the source

Measured: AC50
Note: assay procedure not described here.

Vasopressin V2 receptor, sequence (P30518 whole entry): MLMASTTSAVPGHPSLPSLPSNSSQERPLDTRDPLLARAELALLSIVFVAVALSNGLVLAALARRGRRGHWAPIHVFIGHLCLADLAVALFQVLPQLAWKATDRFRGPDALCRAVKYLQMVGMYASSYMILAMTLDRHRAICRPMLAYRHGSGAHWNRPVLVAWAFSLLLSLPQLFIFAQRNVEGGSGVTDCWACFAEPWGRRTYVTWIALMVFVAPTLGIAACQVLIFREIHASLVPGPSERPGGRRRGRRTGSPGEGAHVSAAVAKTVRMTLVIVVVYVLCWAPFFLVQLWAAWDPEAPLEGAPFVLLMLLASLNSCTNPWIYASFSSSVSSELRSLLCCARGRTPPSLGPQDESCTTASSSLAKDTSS

CCOC(=O)[C@H](CCc1ccccc1)N[C@@H](C)C(=O)N1Cc2ccccc2C[C@H]1C(=O)O
> 30 µM: [1] | [2] | [3] | [4] | [5] | [6] | [8] | [9] | [12] | [13]
> 10 µM: [7] | [10] | [11] | [14]

O=C(O)COC(=O)Cc1ccccc1Nc1c(Cl)cccc1Cl [ACECLOFENAC]
> 10 µM: [7] | [11] | [14]
> 30 µM: [2] | [3] | [4] | [9] | [10] | [13]

NCCCNCCSP(=O)(O)O [AMIFOSTINE]
> 30 µM: [2] | [3] | [4] | [5] | [7] | [9] | [11] | [14]

NCCCCCC(=O)O [AMINOCAPROIC ACID]
> 10 µM: [2] | [7] | [9] | [11] | [14]

CN(C)CCC=C1c2ccccc2CCc2ccccc21 [AMITRIPTYLINE]
0.12 µM: [13]
> 10 µM: [11]
> 30 µM: [1] | [2] | [3] | [4] | [5] | [6] | [9] | [10]
7.42 µM: [12]

CC(=O)Oc1ccccc1C(=O)O [ASPIRIN]
> 10 µM: [11]
> 30 µM: [1] | [2] | [3] | [4] | [5] | [6] | [7] | [8] | [9] | [10] | [12] | [13] | [14]

CC(C)NCC(O)COc1ccc(CC(N)=O)cc1 (stereo unspecified) [ATENOLOL]
> 30 µM: [2] | [3] | [9] | [10] | [13]

C[C@H](CS)C(=O)N1CCC[C@H]1C(=O)O [CAPTOPRIL]
> 10 µM: [7] | [11] | [14]
> 30 µM: [2] | [3] | [9] | [13]

CN(C)CCCC1(c2ccc(F)cc2)OCc2cc(C#N)ccc21 (stereo unspecified) [CITALOPRAM]
> 10 µM: [10] | [11]
> 30 µM: [1] | [2] | [3] | [4] | [5] | [6] | [9]

O=P1(N(CCCl)CCCl)NCCCO1 (stereo unspecified) [CYCLOPHOSPHAMIDE ANHYDROUS]
> 30 µM: [1] | [6] | [8] | [12]

COC(=O)CCc1ccc(OCC(O)CNC(C)C)cc1 (stereo unspecified) [ESMOLOL]
> 30 µM: [2] | [3] | [5] | [7] | [9] | [11] | [13] | [14]

O=c1[nH]cc(F)c(=O)[nH]1 [FLUOROURACIL]
> 30 µM: [1] | [2] | [3] | [5] | [6] | [8] | [9] | [10] | [12]

NCC1(CC(=O)O)CCCCC1 [GABAPENTIN]
> 30 µM: [1] | [2] | [3] | [4] | [5] | [6] | [7] | [8] | [9] | [10] | [12] | [13] | [14]
> 10 µM: [11]

CCN(CCO)CCCC(C)Nc1ccnc2cc(Cl)ccc12 (stereo unspecified) [HYDROXYCHLOROQUINE]
> 10 µM: [2] | [7] | [9] | [11] | [14]

CNC1(c2ccccc2Cl)CCCCC1=O (stereo unspecified) [KETAMINE]
> 30 µM: [1] | [6] | [8] | [12]

O=C(c1ccccc1)c1ccc2n1CCC2C(=O)O (stereo unspecified) [KETOROLAC]
> 30 µM: [7] | [11] | [13] | [14]
> 10 µM: [2] | [9] | [10]

Nc1nnc(-c2cccc(Cl)c2Cl)c(N)n1 [LAMOTRIGINE]
> 30 µM: [2] | [3] | [4] | [5] | [9] | [13]
> 10 µM: [7] | [10] | [11] | [14]

CC(=O)NC[C@H]1CN(c2ccc(N3CCOCC3)c(F)c2)C(=O)O1 [LINEZOLID]
> 30 µM: [2] | [3] | [4] | [5] | [9] | [11] | [13]

O=NN(CCCl)C(=O)NC1CCCCC1 [LOMUSTINE]
> 30 µM: [1] | [6] | [12]
> 3 µM: [8]

CCC1(c2ccccc2)C(=O)NCNC1=O [PRIMIDONE]
> 10 µM: [2] | [7] | [9] | [14]

Cc1c(C)c2c(c(C)c1O)CCC(C)(COc1ccc(CC3SC(=O)NC3=O)cc1)O2 (stereo unspecified) [TROGLITAZONE]
> 30 µM: [1] | [2] | [3] | [4] | [5] | [6] | [9] | [10] | [11] | [13] | [14]
8.75 µM: [12]
3.96 µM: [8]
